By IC50 is commonly meant the concentration that gives 50% inhibition.

Experiment [1] relates to MDA‐MB‐231 triple‐negative breast cancer cell line. The experiment can be described thus: MTS cell viability assay, MDA-MB-231. The format is cell-based. The note with it: MDA‐MB‐231 cells, 72 h treatment. Here is the method:
The cell viability effects of compounds 5a–5f were assessed in LY2, JIMT1, and MDA‐MB‐231 breast cancer cell lines using the 3‐(4,5‐dimethylthiazol‐2‐yl)‐5‐(3‐carboxymethoxyphenyl)‐2‐(4‐sulfophenyl)‐2H‐tetrazolium (MTS) assay. The MTS assay measures metabolic viability and serves as a first‐pass screen.
JIMT‐1 (DSMZ ACC 589) and MDA‐MB‐231 (ATCC HTB‐26) breast cancer cell lines were maintained in Dulbecco's Modified Eagle Medium (DMEM) High Glucose with L‐glutamine (D5796, Sigma) supplemented with 10% fetal calf serum. MCF7‐derivative LY2 breast cancer cells were previously described (REF: PMID: 33420368). LY2 cells were cultured in phenol red‐free MEM (PRF‐MEM; 51 200‐046, Gibco) supplemented with 10% charcoal dextran‐stripped fetal calf serum (CDS‐FCS; F6765, Merck), 2 mmol/L L‐glutamine (G7513, Merck), and 10^−8 mol/L 4‐hydroxytamoxifen (4‐OHT; H7904, Merck). All cell lines were maintained at 37°C in a humidified incubator with 5% CO2 and regularly authenticated and tested for mycoplasma.
Cell viability was evaluated in response to increasing concentrations of 5a‐5f (0.3, 1, 3, 10, and 30 μM) or vehicle control (0.1% DMSO). LY2, JIMT1, and MDA‐MB‐231 cells were seeded at a density of 2,500 cells per well in 96‐well plates with a total volume of 100 μL per well. Prior to treatment, cells were serum‐deprived for 24 h. Following serum depletion, cells were treated in complete growth medium for 72 h. Cell viability was assessed using the MTS assay (G1111, Promega) according to the manufacturer's instructions. Absorbance was measured at 495 nm using a BioTek Synergy HTX Multi‐Mode Microplate Reader (Agilent). Results were normalized to the vehicle control (DMSO), and the half‐maximal inhibitory concentration (IC50) of the inhibitors was determined by nonlinear regression (curve fit) using a four‐parameter variable slope model.
In general terms: Tetrazolium dyes change colour on reduction, which living cells bring about.

In the next experiment the target is PI3Kα (Homo sapiens, UniProt P42336). The experiment can be described thus: PI3Kα inhibition, 10-dose IC50 (Reaction Biology Corporation). Type of experiment: biochemical.
PI3Kα, sequence (P42336 whole entry, canonical isoform): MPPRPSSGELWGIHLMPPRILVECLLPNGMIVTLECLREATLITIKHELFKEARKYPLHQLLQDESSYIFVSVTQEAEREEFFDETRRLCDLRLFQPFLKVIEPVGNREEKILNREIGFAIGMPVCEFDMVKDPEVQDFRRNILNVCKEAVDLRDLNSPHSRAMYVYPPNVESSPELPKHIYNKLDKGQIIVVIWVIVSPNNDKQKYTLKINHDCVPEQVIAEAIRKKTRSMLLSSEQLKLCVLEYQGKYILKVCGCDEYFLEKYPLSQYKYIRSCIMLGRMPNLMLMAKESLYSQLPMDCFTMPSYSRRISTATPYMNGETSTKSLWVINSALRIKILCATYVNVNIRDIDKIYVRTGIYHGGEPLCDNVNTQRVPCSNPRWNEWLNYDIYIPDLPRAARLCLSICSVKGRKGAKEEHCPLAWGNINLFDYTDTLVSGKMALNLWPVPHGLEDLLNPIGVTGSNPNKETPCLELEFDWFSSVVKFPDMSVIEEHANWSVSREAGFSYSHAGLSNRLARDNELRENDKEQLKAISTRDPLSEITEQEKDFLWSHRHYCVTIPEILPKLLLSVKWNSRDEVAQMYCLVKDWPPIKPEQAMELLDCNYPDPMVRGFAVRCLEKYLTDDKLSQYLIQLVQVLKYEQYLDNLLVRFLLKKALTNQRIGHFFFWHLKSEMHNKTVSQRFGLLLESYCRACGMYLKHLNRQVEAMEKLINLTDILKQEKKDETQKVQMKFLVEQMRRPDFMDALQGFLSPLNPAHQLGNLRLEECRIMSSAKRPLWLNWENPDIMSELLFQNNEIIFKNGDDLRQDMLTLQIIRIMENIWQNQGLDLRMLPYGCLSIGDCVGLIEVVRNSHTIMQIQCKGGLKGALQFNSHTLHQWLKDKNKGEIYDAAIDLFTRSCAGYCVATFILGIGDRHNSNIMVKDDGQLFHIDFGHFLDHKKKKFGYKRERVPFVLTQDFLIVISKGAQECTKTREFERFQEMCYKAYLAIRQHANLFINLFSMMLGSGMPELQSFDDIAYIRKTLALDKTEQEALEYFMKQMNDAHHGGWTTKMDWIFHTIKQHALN
PI3Kα, sequence (P27986 whole entry partner, canonical isoform): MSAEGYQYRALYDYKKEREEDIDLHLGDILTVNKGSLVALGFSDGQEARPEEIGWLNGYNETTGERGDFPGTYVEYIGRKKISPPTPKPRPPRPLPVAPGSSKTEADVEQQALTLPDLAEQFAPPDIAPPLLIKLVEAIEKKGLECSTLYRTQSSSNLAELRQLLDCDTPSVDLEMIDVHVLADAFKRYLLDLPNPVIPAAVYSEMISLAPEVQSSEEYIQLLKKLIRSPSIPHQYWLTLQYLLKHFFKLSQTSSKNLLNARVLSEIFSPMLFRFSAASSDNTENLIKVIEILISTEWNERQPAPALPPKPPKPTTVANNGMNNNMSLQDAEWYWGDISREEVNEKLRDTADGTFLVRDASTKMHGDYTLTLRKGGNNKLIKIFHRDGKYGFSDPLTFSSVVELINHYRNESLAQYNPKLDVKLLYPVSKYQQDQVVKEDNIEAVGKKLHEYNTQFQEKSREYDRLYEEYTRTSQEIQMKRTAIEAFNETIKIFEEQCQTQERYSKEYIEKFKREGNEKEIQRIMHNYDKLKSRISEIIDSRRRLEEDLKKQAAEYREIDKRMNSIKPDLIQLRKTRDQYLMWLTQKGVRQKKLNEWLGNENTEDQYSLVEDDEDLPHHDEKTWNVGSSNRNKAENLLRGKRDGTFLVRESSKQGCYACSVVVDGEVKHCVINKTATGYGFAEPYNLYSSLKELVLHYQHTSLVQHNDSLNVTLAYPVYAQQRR
The next experiment has as its target HDAC1 (Homo sapiens, UniProt Q13547). The experiment can be described thus: Selectivity profile, single dose 0.5 µM, HDAC1. The format is biochemical. The note with it: remaining enzyme activity; single‐dose duplicate mode at 0.5 μM; read-out: Enzyme % activity (relative to DMSO controls) at 0.5 µM, HDAC1. Here is the method: (§1) The inhibitory profiles of 5b and 5f were evaluated against selected HDAC isoforms (HDAC1, HDAC3, HDAC4, HDAC8, and HDAC10) and PI3K isoforms (PI3Kδ, PI3Kγ, and PI3Kβ) at a fixed concentration of 0.5 µM (Table 3). […] While we explored the phenyl ring in the linker region to achieve selectivity for the HDAC6 isoform, we still observed HDAC class I inhibition. […] It is important to highlight that PI3Kδ is mainly expressed in hematopoietic system and plays roles in leukocyte signaling, T‐cell activation, and immune cell trafficking. FDA‐approved drug idelalisib is a selective PI3Kδ inhibitor in B‐cell malignancies; however, this drug is also related to disruption of the immune system, which can lead to immune manifestations, such as infections. In addition, while isoform‐selective PI3K inhibitors are well tolerated, pan‐inhibition of PI3K is less expected that compensatory mechanisms by the action of other PI3Ks can take place. Thus, a more balanced profile of PI3K inhibition can lead to an overall lack of toxicity of PI3K inhibitors.

The next experiment deals with PI3Kδ (Homo sapiens, UniProt O00329). Nature of the experiment: Selectivity profile, single dose 0.5 µM, PI3Kδ. As to conditions: remaining enzyme activity; single‐dose duplicate mode at 0.5 μM; read-out: Enzyme % activity (relative to DMSO controls) at 0.5 µM, PI3Kδ. Type of experiment: biochemical. Here is the method: as §1
PI3Kδ, sequence (O00329 whole entry): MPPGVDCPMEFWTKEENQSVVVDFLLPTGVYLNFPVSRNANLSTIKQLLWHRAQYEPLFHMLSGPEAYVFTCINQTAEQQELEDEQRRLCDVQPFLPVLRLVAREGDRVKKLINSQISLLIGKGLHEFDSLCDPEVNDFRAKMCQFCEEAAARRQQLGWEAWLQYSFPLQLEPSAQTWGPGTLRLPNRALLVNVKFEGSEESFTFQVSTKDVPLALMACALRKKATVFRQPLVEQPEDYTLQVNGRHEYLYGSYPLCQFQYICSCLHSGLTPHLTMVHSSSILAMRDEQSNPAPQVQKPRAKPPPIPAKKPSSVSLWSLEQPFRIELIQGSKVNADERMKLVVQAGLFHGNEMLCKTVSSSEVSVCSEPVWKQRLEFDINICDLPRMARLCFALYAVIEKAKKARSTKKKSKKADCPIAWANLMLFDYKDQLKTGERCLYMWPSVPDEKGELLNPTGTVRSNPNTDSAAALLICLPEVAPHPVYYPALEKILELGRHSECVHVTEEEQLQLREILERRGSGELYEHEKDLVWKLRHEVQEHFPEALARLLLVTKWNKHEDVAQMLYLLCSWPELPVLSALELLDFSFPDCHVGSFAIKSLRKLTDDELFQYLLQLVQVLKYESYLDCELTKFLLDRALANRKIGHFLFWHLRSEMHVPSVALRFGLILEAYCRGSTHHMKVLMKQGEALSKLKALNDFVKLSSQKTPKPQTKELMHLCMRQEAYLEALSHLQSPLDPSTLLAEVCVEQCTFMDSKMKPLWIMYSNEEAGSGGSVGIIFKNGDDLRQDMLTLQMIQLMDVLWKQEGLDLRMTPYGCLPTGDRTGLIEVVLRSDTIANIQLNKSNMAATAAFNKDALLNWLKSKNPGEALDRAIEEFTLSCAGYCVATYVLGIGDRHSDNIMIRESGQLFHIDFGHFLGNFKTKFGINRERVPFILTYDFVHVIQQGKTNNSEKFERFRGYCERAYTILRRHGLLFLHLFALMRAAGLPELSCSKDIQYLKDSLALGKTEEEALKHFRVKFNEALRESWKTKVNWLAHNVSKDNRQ
PI3Kδ, sequence (P27986 whole entry partner): as the sequence (P27986 whole entry partner, canonical isoform) above
In another experiment the target is PI3Kγ (Homo sapiens, UniProt P48736). Nature of the experiment: Selectivity profile, single dose 0.5 µM, PI3Kγ. Type of experiment: biochemical. The note with it: remaining enzyme activity; single‐dose duplicate mode at 0.5 μM; read-out: Enzyme % activity (relative to DMSO controls) at 0.5 µM, PI3Kγ. Here is the method: as §1
PI3Kγ, sequence (P48736 whole entry): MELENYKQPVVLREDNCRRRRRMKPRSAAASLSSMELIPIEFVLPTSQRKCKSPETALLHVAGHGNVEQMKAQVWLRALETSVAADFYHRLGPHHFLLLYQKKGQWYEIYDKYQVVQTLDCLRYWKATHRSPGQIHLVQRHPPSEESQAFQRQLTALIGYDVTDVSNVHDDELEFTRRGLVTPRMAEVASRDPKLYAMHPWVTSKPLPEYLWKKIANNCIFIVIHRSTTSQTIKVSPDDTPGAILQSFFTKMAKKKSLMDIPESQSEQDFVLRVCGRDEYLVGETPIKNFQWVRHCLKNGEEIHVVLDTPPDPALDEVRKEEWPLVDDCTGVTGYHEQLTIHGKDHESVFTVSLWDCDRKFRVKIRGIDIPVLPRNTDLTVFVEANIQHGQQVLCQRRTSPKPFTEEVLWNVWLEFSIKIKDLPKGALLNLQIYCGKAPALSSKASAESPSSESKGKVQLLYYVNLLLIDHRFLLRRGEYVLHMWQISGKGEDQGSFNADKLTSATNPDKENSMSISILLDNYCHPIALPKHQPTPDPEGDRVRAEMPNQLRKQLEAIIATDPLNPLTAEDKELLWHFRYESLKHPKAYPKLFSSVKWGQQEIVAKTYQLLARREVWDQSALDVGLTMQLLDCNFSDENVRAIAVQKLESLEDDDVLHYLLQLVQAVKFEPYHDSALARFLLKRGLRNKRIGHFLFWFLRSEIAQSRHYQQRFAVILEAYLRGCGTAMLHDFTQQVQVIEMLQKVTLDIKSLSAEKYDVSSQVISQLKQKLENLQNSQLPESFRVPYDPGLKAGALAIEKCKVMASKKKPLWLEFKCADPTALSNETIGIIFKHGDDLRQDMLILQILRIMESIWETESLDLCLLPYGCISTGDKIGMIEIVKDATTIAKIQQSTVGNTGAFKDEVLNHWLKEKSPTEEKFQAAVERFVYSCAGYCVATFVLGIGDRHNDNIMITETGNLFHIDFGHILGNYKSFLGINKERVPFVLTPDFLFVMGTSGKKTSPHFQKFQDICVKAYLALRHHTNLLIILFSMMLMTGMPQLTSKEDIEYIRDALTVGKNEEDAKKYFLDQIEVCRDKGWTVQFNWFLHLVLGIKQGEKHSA

HDAC1, sequence (Q13547 whole entry, canonical isoform): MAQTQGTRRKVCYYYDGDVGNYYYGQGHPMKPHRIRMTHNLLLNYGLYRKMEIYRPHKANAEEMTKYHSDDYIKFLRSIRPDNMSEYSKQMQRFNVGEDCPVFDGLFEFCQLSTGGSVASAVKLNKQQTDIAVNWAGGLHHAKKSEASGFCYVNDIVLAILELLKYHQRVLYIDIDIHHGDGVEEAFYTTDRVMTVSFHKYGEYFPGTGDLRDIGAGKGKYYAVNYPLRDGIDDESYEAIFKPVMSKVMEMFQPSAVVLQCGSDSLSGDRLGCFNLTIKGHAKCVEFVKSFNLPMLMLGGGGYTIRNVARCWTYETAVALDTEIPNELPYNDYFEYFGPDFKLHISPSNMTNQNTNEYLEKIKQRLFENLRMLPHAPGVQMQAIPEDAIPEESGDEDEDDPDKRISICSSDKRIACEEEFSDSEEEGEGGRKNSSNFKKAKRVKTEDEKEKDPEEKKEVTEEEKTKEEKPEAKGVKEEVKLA

As to `COc1ccc(-c2nc(NCc3ccc(C(=O)NO)cc3)nc(N3CCOCC3)n2)cn1` [Compound 5f, N‐Hydroxy‐4‐(((4‐(6‐Methoxypyridin‐3‐yl)‐6‐Morpholino‐1,3,5‐Triazin‐2‐yl)Amino)Methyl)Benzamide], the IC50 in experiment [1] (Homo sapiens, MDA-MB-231, 72 h) was below 5 µM; in experiment [1], 3.3 ± 0.13 µM; on PI3Kα, 236 nM. For the same compound, the results for the remaining activity at 0.5 µM on HDAC1, on PI3Kδ and at PI3Kγ were 35.7%, 59.2% and 77.7%, respectively.

With `O=C(NO)c1ccc(CNc2nc(-c3cccc(O)c3)nc(N3CCOCC3)n2)cc1` [Compound 5b, N‐Hydroxy‐4‐(((4‐(3‐Hydroxyphenyl)‐6‐Morpholino‐1,3,5‐Triazin‐2‐yl)Amino)Methyl)Benzamide], the IC50 in experiment [1] (Homo sapiens, MDA-MB-231, 72 h) was below 5 µM; in experiment [1], 4.4 ± 0.54 µM; at PI3Kα, 17.5 nM. Further, the remaining activity at 0.5 µM turned out to be 35.9% on HDAC1, 8.24% on PI3Kδ and 29.2% at PI3Kγ.

These data come from paper PMC13110364, “Design, Synthesis, and Biological Evaluation of Novel Triazine‐Based Dual Histone Deacetylase/phosphatidylinositol 3‐kinase Inhibitors for Breast Cancer Therapy” (Chemmedchem, 2026).
